Tests used:
[1] = molecular target: JAK1 (recombinant purified GST-tagged catalytic domain) (Homo sapiens (Human), UniProt P23458); assay: Jak Biochemical HTRF Assay (JAK1); settings: [ATP] 31.8 μM
In short: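 Read-out is the 665/615 nm time-resolved FRET ratio from Eu-pY20 antibody and streptavidin-Dylight 650 bound to phosphorylated biotin-peptide. Reactions ran 120 min at room temperature after ATP start. Inhibition normalized to untreated controls gave IC50 via 4-parameter fit.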

[2] = molecular target: JAK2 (recombinant purified GST-tagged catalytic domain) (Homo sapiens (Human), UniProt O60674); assay: Jak Biochemical HTRF Assay (JAK2); settings: [ATP] 8.5 μM
JAK2 (recombinant purified GST-tagged catalytic domain), sequence (O60674 849-1124): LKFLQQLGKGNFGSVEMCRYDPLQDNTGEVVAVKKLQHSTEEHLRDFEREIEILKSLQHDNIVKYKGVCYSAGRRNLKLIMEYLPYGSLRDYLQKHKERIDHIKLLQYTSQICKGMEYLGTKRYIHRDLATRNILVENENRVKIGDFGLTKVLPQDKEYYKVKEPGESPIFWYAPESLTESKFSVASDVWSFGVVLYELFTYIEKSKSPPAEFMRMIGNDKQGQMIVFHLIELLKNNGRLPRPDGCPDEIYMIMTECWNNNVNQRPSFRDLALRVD

JAK1 (recombinant purified GST-tagged catalytic domain), sequence (P23458 875-1153): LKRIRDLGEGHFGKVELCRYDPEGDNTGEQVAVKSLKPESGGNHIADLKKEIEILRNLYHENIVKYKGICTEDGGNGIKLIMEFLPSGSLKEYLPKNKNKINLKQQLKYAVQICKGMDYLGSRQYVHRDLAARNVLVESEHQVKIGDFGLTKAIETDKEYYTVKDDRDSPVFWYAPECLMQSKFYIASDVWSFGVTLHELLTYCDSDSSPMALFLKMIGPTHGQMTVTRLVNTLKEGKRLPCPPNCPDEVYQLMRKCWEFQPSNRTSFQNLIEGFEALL

Structure (SMILES)	IC50 [1] [nM]	IC50 [2] [nM]
CC(C)(C)OC(=O)[C@@H]1CC[C@@](CC#N)(n2nc(Nc3ccc4c(c3)CN(CC(F)(F)F)C4=O)c3c(=O)[nH]ccc32)CO1 [Example 5-95, (2S,5S)-tert-butyl 5-(cyanomethyl)-5-(4-oxo-3-((1-oxo-2-(2,2,2-trifluoroethyl)isoindolin-5-yl)amino)-4,5-dihydro-1H-pyrazolo[4,3-c]pyridin-1-yl)tetrahydro-2H-pyran-2-carboxylate]	0.07	0.2
CC(C)(C)OC(=O)[C@@H]1CC[C@@](CC#N)(n2nc(Nc3ccc(Cn4nccn4)cc3)c3c(=O)[nH]ccc32)CO1 [Example 5-97, (2S,5S)-tert-butyl 5-(3-((4-((2H-1,2,3-triazol-2-yl)methyl)phenyl)amino)-4-oxo-4,5-dihydro-1H-pyrazolo[4,3-c]pyridin-1-yl)-5-(cyanomethyl) tetrahydro-2H-pyran-2-carboxylate]	0.09	0.14
CC(C)S(=O)(=O)c1ccc(Nc2nn([C@]3(CC#N)CC[C@@H](C(=O)OC(C)(C)C)OC3)c3cc[nH]c(=O)c23)cc1 [Example 5-98, (2S,5S)-tert-butyl 5-(cyanomethyl)-5-(3-((4-(isopropylsulfonyl)phenyl)amino)-4-oxo-4,5-dihydro-1H-pyrazolo[4,3-c]pyridin-1-yl)tetrahydro-2H-pyran-2-carboxylate]	0.07	0.18
CC(C)(C)OC(=O)[C@@H]1CC[C@@](CC#N)(n2nc(Nc3ccc(S(=O)(=O)C4CC4)cc3)c3c(=O)[nH]ccc32)CO1 [Example 5-99, (2S,5S)-tert-butyl 5-(cyanomethyl)-5-(3-((4-(cyclopropylsulfonyl)phenyl)amino)-4-oxo-4,5-dihydro-1H-pyrazolo [4,3-c]pyridin-1-yl) tetrahydro-2H-pyran-2-carboxylate]	0.05	0.14
CC(C)(C)OC(=O)[C@@H]1CC[C@@](CC#N)(n2nc(Nc3ccc4c(c3)CN(C(C)(C)C)C4=O)c3c(=O)[nH]ccc32)CO1 [Example 5-100, (2S,5S)-tert-butyl 5-(3-((2-(tert-butyl)-1-oxoisoindolin-5-yl)amino)-4-oxo-4,5-dihydro-1H-pyrazolo[4,3-c]pyridin-1-yl)-5-(cyanomethyl)tetrahydro-2H-pyran-2-carboxylate]	0.14	0.26
CC(C)(C)OC(=O)[C@@H]1CC[C@@](CC#N)(n2nc(Nc3ccc4c(c3)CN(C3CCCCC3)C4=O)c3c(=O)[nH]ccc32)CO1 [Example 5-101, (2S,5S)-tert-butyl 5-(cyanomethyl)-5-(3-((2-cyclohexyl-1-oxoisoindolin-5-yl)amino)-4-oxo-4,5-dihydro-1H-pyrazolo[4,3-c]pyridin-1-yl)tetrahydro-2H-pyran-2-carboxylate]	0.18	0.4
CC(C)(C)OC(=O)[C@@H]1CC[C@@](CC#N)(n2nc(Nc3ccc4c(c3)CN(C3CCCC3)C4=O)c3c(=O)[nH]ccc32)CO1 [Example 5-102, (2S,5S)-tert-butyl 5-(cyanomethyl)-5-(3-((2-cyclopentyl-1-oxoisoindolin-5-yl)amino)-4-oxo-4,5-dihydro-1H-pyrazolo[4,3-c]pyridin-1-yl)tetrahydro-2H-pyran-2-carboxylate]	0.1	0.2
CC(C)(C)OC(=O)[C@@H]1CC[C@@](CC#N)(n2nc(Nc3ccc(C(N)C(F)(F)F)cc3)c3c(=O)[nH]ccc32)CO1 (stereo partly drawn) [Example 5-103, (2S,5S)-tert-butyl 5-(3-((4-(1-amino-2,2,2-trifluoroethyl)phenyl)amino)-4-oxo-4,5-dihydro-1H-pyrazolo[4,3-c]pyridin-1-yl)-5-(cyanomethyl)tetrahydro-2H-pyran-2-carboxylate]	0.07	0.23
CC(C)(C)OC(=O)[C@@H]1CC[C@@](CC#N)(n2nc(Nc3ccc(C(N)C(F)(F)F)cc3)c3c(=O)[nH]ccc32)CO1 (stereo partly drawn) [Example 5-104, (2S,5S)-tert-butyl 5-(3-((4-(1-amino-2,2,2-trifluoroethyl)phenyl)amino)-4-oxo-4,5-dihydro-1H-pyrazolo[4,3-c]pyridin-1-yl)-5-(cyanomethyl)tetrahydro-2H-pyran-2-carboxylate]	0.07	0.27
N#CC[C@@]1(n2nc(Nc3ccc(S(=O)(=O)N4CCC4)cc3)c3c(=O)[nH]ccc32)CCCOC1 [Example 5-105, [(3S)-3-(3-{[4-(azetidin-1-ylsulfonyl)phenyl]amino}-4-oxo-4,5-dihydro-1H-pyrazolo[4,3-c]pyridin-1-yl)tetrahydro-2H-pyran-3-yl]acetonitrile]	0.23	0.55
CC1CN(S(=O)(=O)c2ccc(Nc3nn([C@]4(CC#N)CCCOC4)c4cc[nH]c(=O)c34)cc2)C1 [Example 5-106, {(3S)-3-[3-({4-[(3-methylazetidin-1-yl)sulfonyl]phenyl}amino)-4-oxo-4,5-dihydro-1H-pyrazolo[4,3-c]pyridin-1-yl]tetrahydro-2H-pyran-3-yl}acetonitrile]	0.39	0.99
CC1(C)CCCN1S(=O)(=O)c1ccc(Nc2nn([C@]3(CC#N)CCCOC3)c3cc[nH]c(=O)c23)cc1 [Example 5-107, {(3S)-3-[3-({4-[(2,2-dimethylpyrrolidin-1-yl)sulfonyl]phenyl}amino)-4-oxo-4,5-dihydro-1H-pyrazolo[4,3-c]pyridin-1-yl]tetrahydro-2H-pyran-3-yl} acetonitrile]	0.2	0.33
Cc1cc(Nc2nn([C@]3(CC#N)CCCOC3)c3cc[nH]c(=O)c23)ccc1C(=O)N1CC[C@@H](F)C1 [Example 5-115, 2-((S)-3-(3-((4-((R)-3-fluoropyrrolidine-1-carbonyl)-3-methylphenyl)amino)-4-oxo-4,5-dihydro-1H-pyrazolo[4,3-c]pyridin-1-yl)tetrahydro-2H-pyran-3-yl)acetonitrile]	0.33	0.99
CO[C@H]1CCN(C(=O)c2ccc(Nc3nn([C@]4(CC#N)CCCOC4)c4cc[nH]c(=O)c34)cc2C)C1 [Example 5-116, 2-((S)-3-(3-((4-((S)-3-methoxypyrrolidine-1-carbonyl)-3-methylphenyl)amino)-4-oxo-4,5-dihydro-1H-pyrazolo[4,3-c]pyridin-1-yl)tetrahydro-2H-pyran-3-yl)acetonitrile]	0.61	1.22
CO[C@@H]1CCN(C(=O)c2ccc(Nc3nn([C@]4(CC#N)CCCOC4)c4cc[nH]c(=O)c34)cc2C)C1 [Example 5-117, 2-((S)-3-(3-((4-((R)-3-methoxypyrrolidine-1-carbonyl)-3-methylphenyl)amino)-4-oxo-4,5-dihydro-1H-pyrazolo[4,3-c]pyridin-1-yl)tetrahydro-2H-pyran-3-yl)acetonitrile]	0.45	1.36
Cc1cc(Nc2nn([C@]3(CC#N)CCCOC3)c3cc[nH]c(=O)c23)ccc1C(=O)N1CCOCC1 [Example 5-118, (S)-2-(3-(3-((3-methyl-4-(morpholine-4-carbonyl)phenyl)amino)-4-oxo-4,5-dihydro-1H-pyrazolo[4,3-c]pyridin-1-yl)tetrahydro-2H-pyran-3-yl)acetonitrile]	0.34	0.76
CC(C)(C)S(=O)(=O)c1ccc(Nc2nn(C3(CC#N)CCCC3)c3cc[nH]c(=O)c23)cc1 [Example 5-122, 2-(1-(3-((4-(tert-butylsulfonyl)phenyl)amino)-4-oxo-4,5-dihydro-1H-pyrazolo[4,3-c]pyridin-1-yl)cyclopentyl)acetonitrile]	0.22	0.48
CN(C)S(=O)(=O)c1ccc(Nc2nn(C3(CC#N)CCCC3)c3cc[nH]c(=O)c23)cc1 [Example 5-123]	0.23	0.46
N#CCC1(n2nc(Nc3ccc(C#N)cc3)c3c(=O)[nH]ccc32)CCCC1 [Example 5-124, 4-((1-(1-(cyanomethyl)cyclopentyl)-4-oxo-4,5-dihydro-1H-pyrazolo[4,3-c]pyridin-3-yl)amino) benzonitrile]	0.58	3.69
N#CCC1(n2nc(Nc3ccc4c(c3)COC4=O)c3c(=O)[nH]ccc32)CCCC1 [Example 5-125, 2-(1-(4-oxo-3-((1-oxo-1,3-dihydroisobenzofuran-5-yl)amino)-4,5-dihydro-1H-pyrazolo[4,3-c]pyridin-1-yl)cyclopentyl)acetonitrile]	0.27	2.71
CC(C)(C)OC(=O)c1ccc(Nc2nn(C3(CC#N)CCCC3)c3cc[nH]c(=O)c23)cc1 [Example 5-127, tert-butyl 4-((1-(1-(cyanomethyl)cyclopentyl)-4-oxo-4,5-dihydro-1H-pyrazolo[4,3-c]pyidin-3-yl)amino)benzoate]	4.76	30.5
CNC(=O)c1ccc(Nc2nn(C3(CC#N)CCCC3)c3cc[nH]c(=O)c23)cc1 [Example 5-128, 4-((1-(1-(cyanomethyl)cyclopentyl)-4-oxo-4,5-dihydro-1H-pyrazolo[4,3-c]pyridin-3-yl)amino)-N-methylbenzamide.]	0.22	2.24
CC(C)N1Cc2cc(Nc3nn(C4(CC#N)CCCC4)c4cc[nH]c(=O)c34)ccc2C1=O [Example 5-129, 2-(1-(3-((2-isopropyl-1-oxoisoindolin-5-yl)amino)-4-oxo-4,5-dihydro-1H-pyrazolo[4,3-c]pyridin-1-yl)cyclopentyl)acetonitrile]	2.07	3.54
CNS(=O)(=O)c1ccc(Nc2nn(C3(CC#N)CCCC3)c3cc[nH]c(=O)c23)cc1 [Example 5-131, 4-((1-(1-(cyanomethyl)cyclopentyl)-4-oxo-4,5-dihydro-1H-pyrazolo[4,3-c]pyridin-3-yl)amino)-N-methylbenzenesulfonamide]	0.25	0.98
N#CCC1(n2nc(Nc3ccc(S(=O)(=O)N4CCC4)cc3)c3c(=O)[nH]ccc32)CCCC1 [Example 5-132, 2-(1-(3-((4-(azetidin-1-ylsulfonyl)phenyl)amino)-4-oxo-4,5-dihydro-1H-pyrazolo[4,3-c]pyridin-1-yl)cyclopentyl)acetonitrile]	0.39	0.68
